From ChEMBL document CHEMBL4033734, “Synthesis of 3- and 29-substituted celastrol derivatives and structure-activity relationship studies of their cytotoxic activities” (Bioorg Med Chem Lett, 2017)

Assays:
HeLa = experiment: Cytotoxic activity against human HeLa cells incubated for 48 hrs by MTT assay; format: functional, cell-based
Bel-7402 = experiment: Cytotoxic activity against human Bel7402 cells incubated for 48 hrs by MTT assay; format: functional, cell-based; settings: Bel-7402, 48 h
SGC-7901 = experiment: Cytotoxic activity against human SGC7901 cells incubated for 48 hrs by MTT assay; format: functional, cell-based; settings: SGC-7901, 48 h
HepG2 = experiment: Cytotoxic activity against human HepG2 cells incubated for 48 hrs by MTT assay; format: functional, cell-based; settings: HepG2, 48 h
A549 [1] = experiment: Cytotoxic activity against human A549 cells incubated for 48 hrs by MTT assay; format: functional, cell-based; settings: A549, 48 h
Mus musculus [2] = experiment: Toxicity in nude mouse xenografted with human A549 cells assessed as induction of mouse fatality at 3 mg/kg, ig dosed every day; format: organism-based; settings: in vivo, po
A549 [3] = experiment: Antitumor activity against human A549 cells xenografted in nude mouse assessed as relative tumor volume at 12 mg/kg, ig dosed every day relative to initial tumor volume; format: functional
Mus musculus [4] = experiment: Toxicity in nude mouse xenografted with human A549 cells assessed as induction of mouse fatality at 12 mg/kg, ig dosed every day; format: organism-based; settings: in vivo, po
A549 [5] = experiment: Antitumor activity against human A549 cells xenografted in nude mouse assessed as tumor growth inhibition at 6 mg/kg, ig dosed every day; format: functional; settings: A549, po, read-out: TGI
Mus musculus [6] = experiment: Toxicity in nude mouse xenografted with human A549 cells assessed as change in body weight at 12 mg/kg, ig dosed every day (reference value: 25.8 g); format: organism-based; settings: in vivo, po
A549 [7] = experiment: Antitumor activity against human A549 cells xenografted in nude mouse assessed as tumor growth inhibition at 12 mg/kg, ig dosed every day; format: functional; settings: A549, po, read-out: TGI
Mus musculus [8] = experiment: Toxicity in nude mouse xenografted with human A549 cells assessed as induction of mouse fatality at 6 mg/kg, ig dosed every day; format: organism-based; settings: in vivo, po
A549 [9] = experiment: Antitumor activity against human A549 cells xenografted in nude mouse assessed as relative tumor volume at 6 mg/kg, ig dosed every day relative to initial tumor volume; format: functional
Mus musculus [10] = experiment: Toxicity in nude mouse xenografted with human A549 cells assessed as change in body weight at 3 mg/kg, ig dosed every day (reference value: 26.8 g); format: organism-based; settings: in vivo, po
Mus musculus [11] = experiment: Toxicity in nude mouse xenografted with human A549 cells assessed as change in body weight at 6 mg/kg, ig dosed every day (reference value: 25.9 g); format: organism-based; settings: in vivo, po
A549 [12] = experiment: Antitumor activity against human A549 cells xenografted in nude mouse assessed as tumor growth inhibition at 3 mg/kg, ig dosed every day; format: functional; settings: A549, po, read-out: TGI
A549 [13] = experiment: Antitumor activity against human A549 cells xenografted in nude mouse assessed as tumor growth inhibition at 3 to 12 mg/kg, ig dosed every day; format: functional, organism-based
A549 [14] = experiment: Antitumor activity against human A549 cells xenografted in nude mouse assessed as relative tumor volume at 3 mg/kg, ig dosed every day relative to initial tumor volume; format: functional
Mus musculus [15] = experiment: Toxicity in ip dosed nude mouse assessed as induction of mouse fatality; format: organism-based; settings: in vivo
Mus musculus [16] = experiment: Toxicity in nude mouse xenografted with human A549 cells assessed as change in body weight at 12 mg/kg, ig dosed every day (reference value: 26.5 g); format: organism-based; settings: in vivo, po

Compound	IC50 (HeLa)	IC50 (Bel-7402)	IC50 (SGC-7901)	IC50 (HepG2)	IC50 (A549 [1])	other results
C=CCOC(=O)[C@]1(C)CC[C@]2(C)CC[C@]3(C)C4=CC=C5C(=CC(=O)C(O)=C5C)[C@]4(C)CC[C@@]3(C)[C@@H]2C1	310 nM	630 nM	330 nM	310 nM	1490 nM	
CCOC(=O)[C@]1(C)CC[C@]2(C)CC[C@]3(C)C4=CC=C5C(=CC(=O)C(O)=C5C)[C@]4(C)CC[C@@]3(C)[C@@H]2C1	830 nM	920 nM	240 nM	490 nM	1440 nM	
CC1=C(O)C(=O)C=C2C1=CC=C1[C@@]2(C)CC[C@@]2(C)[C@@H]3C[C@](C)(C(=O)OCc4ccc(I)cc4)CC[C@]3(C)CC[C@]12C	1320 nM	860 nM	810 nM	1950 nM	7700 nM	
CC1=C(OC(=O)N2CCN(Cc3ccccc3)CC2)C(=O)C=C2C1=CC=C1[C@@]2(C)CC[C@@]2(C)[C@@H]3C[C@](C)(C(=O)OCc4ccccc4)CC[C@]3(C)CC[C@]12C	18000 nM	5170 nM	11700 nM	9900 nM	8850 nM	
CCN1CCN(C(=O)OC2=C(C)C3=CC=C4[C@@](C)(CC[C@@]5(C)[C@@H]6C[C@](C)(C(=O)OCc7ccccc7)CC[C@]6(C)CC[C@]45C)C3=CC2=O)CC1	1590 nM	2440 nM	2880 nM	4610 nM	5910 nM	
CC1=C(O)C(=O)C=C2C1=CC=C1[C@@]2(C)CC[C@@]2(C)[C@@H]3C[C@](C)(C(=O)OCc4ccc([N+](=O)[O-])cc4)CC[C@]3(C)CC[C@]12C	410 nM	240 nM	510 nM	440 nM	2010 nM	
CC1=C(O)C(=O)C=C2C1=CC=C1[C@@]2(C)CC[C@@]2(C)[C@@H]3C[C@](C)(C(=O)OCc4ccccc4)CC[C@]3(C)CC[C@]12C	460 nM	200 nM	310 nM	800 nM	2330 nM	
CC1=C(OC(=O)N2CCN(C)CC2)C(=O)C=C2C1=CC=C1[C@@]2(C)CC[C@@]2(C)[C@@H]3C[C@](C)(C(=O)OCc4ccccc4)CC[C@]3(C)CC[C@]12C	2310 nM	1020 nM	1280 nM	2610 nM	5180 nM	Activity (Mus musculus [2]): Non-Toxic; fold change (FC) (A549 [3]): 0.55; Activity (Mus musculus [4]): Non-Toxic; inhibition in vivo at 6 mg/kg (A549 [5]): 57.5%; Activity (Mus musculus [6]): 26.9 g; inhibition in vivo at 12 mg/kg (A549 [7]): 71%; Activity (Mus musculus [8]): Non-Toxic; fold change (FC) (A549 [9]): 0.63; Activity (Mus musculus [10]): 26.5 g; Activity (Mus musculus [11]): 27 g; inhibition in vivo at 3 mg/kg (A549 [12]): 46.1%; TGI (A549 [13]): Dose-dependent effect; fold change (FC) (A549 [14]): 0.76
CC1=C(O)C(=O)C=C2C1=CC=C1[C@@]2(C)CC[C@@]2(C)[C@@H]3C[C@](C)(C(=O)OCc4ccc(C)cc4)CC[C@]3(C)CC[C@]12C	1050 nM	630 nM	700 nM	430 nM	3120 nM	
COC(=O)[C@]1(C)CC[C@]2(C)CC[C@]3(C)C4=CC=C5C(=CC(=O)C(O)=C5C)[C@]4(C)CC[C@@]3(C)[C@@H]2C1 [PRISTIMERIN]	320 nM	1160 nM	630 nM	780 nM	1030 nM	
CC1=C(OC(=O)N2CCCCC2C)C(=O)C=C2C1=CC=C1[C@@]2(C)CC[C@@]2(C)[C@@H]3C[C@](C)(C(=O)OCc4ccccc4)CC[C@]3(C)CC[C@]12C (stereo partly drawn)	4270 nM	5050 nM	4730 nM	8190 nM	15000 nM	
CC1=C(O)C(=O)C=C2C1=CC=C1[C@@]2(C)CC[C@@]2(C)[C@@H]3C[C@](C)(C(=O)OCc4cccc(Cl)c4)CC[C@]3(C)CC[C@]12C	420 nM	370 nM	310 nM	870 nM	3250 nM	
CCCCCCOC(=O)[C@]1(C)CC[C@]2(C)CC[C@]3(C)C4=CC=C5C(=CC(=O)C(O)=C5C)[C@]4(C)CC[C@@]3(C)[C@@H]2C1	1840 nM	2210 nM	1580 nM	1740 nM	9310 nM	
CCCCOC(=O)[C@]1(C)CC[C@]2(C)CC[C@]3(C)C4=CC=C5C(=CC(=O)C(O)=C5C)[C@]4(C)CC[C@@]3(C)[C@@H]2C1	790 nM	1010 nM	730 nM	1050 nM	1360 nM	
CC1=C(O)C(=O)C=C2C1=CC=C1[C@@]2(C)CC[C@@]2(C)[C@@H]3C[C@](C)(C(=O)OCc4ccc(Br)cc4)CC[C@]3(C)CC[C@]12C	870 nM	520 nM	810 nM	660 nM	3070 nM	
CC1=C(OC(=O)N2CCCCC2)C(=O)C=C2C1=CC=C1[C@@]2(C)CC[C@@]2(C)[C@@H]3C[C@](C)(C(=O)OCc4ccccc4)CC[C@]3(C)CC[C@]12C	2820 nM	3220 nM	3040 nM	7430 nM	12100 nM	
CC(=O)N1CCN(C(=O)OC2=C(C)C3=CC=C4[C@@](C)(CC[C@@]5(C)[C@@H]6C[C@](C)(C(=O)OCc7ccccc7)CC[C@]6(C)CC[C@]45C)C3=CC2=O)CC1	1350 nM	4230 nM	3640 nM	5790 nM	7200 nM	
CCC(C)OC(=O)[C@]1(C)CC[C@]2(C)CC[C@]3(C)C4=CC=C5C(=CC(=O)C(O)=C5C)[C@]4(C)CC[C@@]3(C)[C@@H]2C1 (stereo partly drawn)	360 nM	590 nM	360 nM	390 nM	1930 nM	
CC1=C(O)C(=O)C=C2C1=CC=C1[C@@]2(C)CC[C@@]2(C)[C@@H]3C[C@](C)(C(=O)OCC(C)C)CC[C@]3(C)CC[C@]12C	410 nM	530 nM	240 nM	340 nM	1070 nM	
CCCCCOC(=O)[C@]1(C)CC[C@]2(C)CC[C@]3(C)C4=CC=C5C(=CC(=O)C(O)=C5C)[C@]4(C)CC[C@@]3(C)[C@@H]2C1	560 nM	810 nM	460 nM	440 nM	2300 nM	
CC1=C(O)C(=O)C=C2C1=CC=C1[C@@]2(C)CC[C@@]2(C)[C@@H]3C[C@](C)(C(=O)OC(C)C)CC[C@]3(C)CC[C@]12C	1750 nM	430 nM	470 nM	320 nM	3410 nM	
CC1=C(OC(=O)N(C)c2ccccc2)C(=O)C=C2C1=CC=C1[C@@]2(C)CC[C@@]2(C)[C@@H]3C[C@](C)(C(=O)OCc4ccccc4)CC[C@]3(C)CC[C@]12C	6360 nM	4070 nM	4310 nM	4250 nM	14800 nM	
CC1=C(OC(=O)N2CCOCC2)C(=O)C=C2C1=CC=C1[C@@]2(C)CC[C@@]2(C)[C@@H]3C[C@](C)(C(=O)OCc4ccccc4)CC[C@]3(C)CC[C@]12C	1550 nM	1560 nM	1780 nM	1360 nM	9350 nM	
CCOC(=O)COC(=O)[C@]1(C)CC[C@]2(C)CC[C@]3(C)C4=CC=C5C(=CC(=O)C(O)=C5C)[C@]4(C)CC[C@@]3(C)[C@@H]2C1	610 nM	300 nM	670 nM	760 nM	3890 nM	
CC1=C(O)C(=O)C=C2C1=CC=C1[C@@]2(C)CC[C@@]2(C)[C@@H]3C[C@](C)(C(=O)OCOCc4ccccc4)CC[C@]3(C)CC[C@]12C	1120 nM	510 nM	300 nM	370 nM	3780 nM	
CCCOC(=O)[C@]1(C)CC[C@]2(C)CC[C@]3(C)C4=CC=C5C(=CC(=O)C(O)=C5C)[C@]4(C)CC[C@@]3(C)[C@@H]2C1	1380 nM	410 nM	470 nM	280 nM	2150 nM	
CC1=C(O)C(=O)C=C2C1=CC=C1[C@@]2(C)CC[C@@]2(C)[C@@H]3C[C@](C)(C(=O)O)CC[C@]3(C)CC[C@]12C [CELASTROL]	840 nM	440 nM	870 nM	580 nM	2120 nM	fold change (FC) (A549 [3]): 0.84; Activity (Mus musculus [4]): Toxic; inhibition in vivo at 12 mg/kg (A549 [7]): 62%; Activity (Mus musculus [15]): Toxic; Activity (Mus musculus [16]): 25.5 g
